Data reported in US5658885A, “Amidino and guanidino substituted boronic acid inhibitors of trypsin-like enzymes” (The DuPont Merck Pharmaceutical Company, priority 1994, dated 1997).
Structures can show the parent of a compound that is named as a salt.

What follows are compounds tested against T1, human thrombin (Homo sapiens, UniProt P00734) (assay: Inhibition of thrombin hydrolysis of chromogenic substrate S2238 (Ki)). Details: S2238, pH 7.5.
T1 construct: 0.2-0.5 nM human thrombin or human factor Xa; purchased Enzyme Research Laboratories, South Bend, Ind
Assay type: biochemical
Description: The effectiveness of compounds of the present invention as inhibitors of blood coagulation proteases was determined using purified human proteases and synthetic substrates following procedures similar to those described in Kettner et al. (1990).
For these assays, the rate of enzymatic (thrombin, Factor Xa, and Factor VIIa) hydrolysis of chromogenic substrates (S2238 (H-D-Phe-Pip-Arg-pNA), S2222, and S2288, respectively; Kabi Pharmacia, Franklin, Ohio) was measured both in the absence and presence of compounds of the present invention. […] A decrease in the rate of absorbance change at 405 nm in the presence of inhibitor is indicative of enzyme inhibition. The results of this assay are expressed as inhibitory constant, Ki.
Thrombin and Xa determinations were made in 0.10M sodium phosphate buffer, pH 7.5, containing 0.20M NaCl, and 0.5% PEG 8000. VIIa determinations were made in 0.05M tris buffer, pH 7.6, containing 0.10M NaCl, 4 mM CaCl2, and 0.1% bovine serum albumin.
Reactions were allowed to go for 30 minutes and the velocities (rate of absorbance change vs time) were measured in the time frame of 25-30 minutes. The following relationship was used to calculate Ki values. [formula] where: vo is the velocity of the control in the absence of inhibitor;
vs is the velocity in the presence of inhibitor;
I is the concentration of inhibitor;
Ki is the dissociation constant of the enzyme: inhibitor complex;
S is the concentration of substrate;
Km is the Michaelis constant.

| Ki | Compound |
| --- | --- |
| < 0.5 µM | CC(C)(C)OC(=O)NC(Cc1ccccc1)C(=O)N1CCCC1C(=O)NC(CCCNC(=O)CO)B1OC2CC3CC(C3(C)C)C2(C)O1 (stereo not shown) [Example 112, Boc--(D)Phe--Pro--boroOrn(COCH2 OH)--C10 H16] |
| < 0.5 µM | CC(C)(C)OC(=O)N[C@H](Cc1ccccc1)C(=O)N1CCCC1C(=O)NC(CCCNS(C)(=O)=O)B1OC2CC3CC(C3(C)C)C2(C)O1 (stereo partly shown) [Example 113, Boc--(D)Phe--Pro--boroOrn(N-Methanesulfonyl)--C10 H16] |
| < 0.5 µM | CC(=O)Nc1ccc(S(=O)(=O)NC(Cc2ccccc2)C(=O)N2CCCC2C(=O)NC(CCCNS(C)(=O)=O)B2OC3CC4CC(C4(C)C)C3(C)O2)cc1 (stereo not shown) [Example 115, 4-(N-Acetyl)Anilinesulfonyl-(D)Phe--Pro--boroOrn(N-Methanesulfonyl)-C10 H16] |
| < 0.5 µM | CN(C)[C@H](Cc1ccccc1)C(=O)N1CCCC1C(=O)NC(CCCNS(C)(=O)=O)B1OC2CC3CC(C3(C)C)C2(C)O1 (stereo partly shown) [Example 117, N,N-dimethyl-(D)Phe--Pro--boroOrn-(N-Methanesulfonyl)-C10 H16.HCl] |
| < 0.5 µM | CC(=O)NCC(=O)N[C@H](Cc1ccccc1)C(=O)N1CCC[C@H]1C(=O)NC(CCCNS(C)(=O)=O)B1OC2CC3CC(C3(C)C)C2(C)O1 (stereo partly shown) [Example 118, Ac--Gly--(D)Phe--Pro--BoroOrn(N-Methanesulfonyl)-C10 H16] |
| < 0.5 µM | CCOCCCC(NC(=O)C1CCCN1C(=O)C(Cc1ccccc1)NC(=O)OC(C)(C)C)B1OC2CC3CC(C3(C)C)C2(C)O1 (stereo not shown) [Example 121, Boc--(D)Phe--Pro--boroGly[(CH2)3 --OCH2 CH3]--C10 H16] |
| < 0.5 µM | CC(C)(C)OC(=O)N[C@H](Cc1ccccc1)C(=O)N1CCC[C@H]1C(=O)NC(CC1CCC(N)CC1)B1OC2CC3CC(C3(C)C)C2(C)O1 (stereo partly shown) [Example 125, Boc--(D)Phe--Pro--NH--CH[CH2 (4-amino-cyclohexyl)]BO2 --C10 H16] |
| < 0.5 µM | CN[C@H](Cc1ccccc1)C(=O)N1CCCC1C(=O)NC(CCCOC)B1OC2CC3CC(C3(C)C)C2(C)O1 (stereo partly shown) [Example 142, N-methyl-(D)--Phe--Pro--boroGly[(CH2)3 --OCH3]--C10 H16] |
| < 0.5 µM | Boc--(D)Phe--Pro--boroOrn[C(NCN)SCH3 ]--C10 H16 [Example 107] |
| < 0.5 µM | CH3 (CH2)3 SO2 --(D)Phe--Pro--boroArg(CH3)--OH.HCl [Example 65] |
| < 0.5 µM | H--(D)Phe--Pro--boroOrn(CONH2)--C10 H16.HCl [Example 109] |
| < 0.5 µM | HOOCCH2 --(D)Phe--Pro--boroOrn(CONH2)--C10 H16.HCl [Example 111] |

Second part, the compound before the results:

| Compound | Ki |
| --- | --- |
| CC1(C)C2CC3OB(C(CCCNS(C)(=O)=O)NC(=O)[C@@H]4CCCN4C(=O)[C@H](N)Cc4ccccc4)OC3(C)C1C2 (stereo partly shown) [Example 114, H--(D)Phe--Pro--boroOrn(N-Methanesulfonyl)-C10 H16.HCl] | < 0.5 µM |
| CC1(C)C2CC3OB(C(CCCNS(C)(=O)=O)NC(=O)C4CCCN4C(=O)C(Cc4ccccc4)NS(C)(=O)=O)OC3(C)C1C2 (stereo not shown) [Example 116, Methanesulfonyl-(D)Phe--Pro--boroOrn(N-Methanesulfonyl)-C10 H16] | < 0.5 µM |
| CC1(C)C2CC3OB(C(CCCNS(C)(=O)=O)NC(=O)C4CCCN4C(=O)[C@@H](Cc4ccccc4)NCC(=O)O)OC3(C)C1C2 (stereo partly shown) [Example 119, HOOCCH2 --(D)Phe--Pro--boroOrn(N-Methanesulfonyl)-C10 H16.HCl] | < 0.5 µM |
| CC1(C)C2CC3OB(C(CCCNS(C)(=O)=O)NC(=O)[C@@H]4CCCN4C(=O)[C@@H](Cc4ccccc4)NS(=O)(=O)Cc4ccccc4)OC3(C)C1C2 (stereo partly shown) [Example 120, PhCH2 SO2 --(D)Phe--Pro--boroOrn(N-Methanesulfonyl)-C10 H16] | < 0.5 µM |
| CC(C)(C)OC(=O)NC(Cc1ccccc1)C(=O)N1CCCC1C(=O)NC(CCCC#N)B1OC2CC3CC(C3(C)C)C2(C)O1 (stereo not shown) [Example 122, Boc--(D)Phe--Pro--boroGly[(CH2)3 --CN]--C10 H16] | < 50 µM |
| CC(C)(C)OC(=O)N[C@H](Cc1ccccc1)C(=O)N1CCCC1C(=O)NC(CC1CCC(O)CC1)B1OC2CC3CC(C3(C)C)C2(C)O1 (stereo partly shown) [Example 127, Boc--(D)Phe--Pro--NH--CH[CH2 (4-hydroxy-cyclohexyl)]BO2 --C10 H16] | < 0.5 µM |
| CC(C)(C)OC(=O)NC(Cc1ccccc1)C(=O)N1CCCC1C(=O)NC(CC1CCC(N=C(N)N)CC1)B1OC2CC3CC(C3(C)C)C2(C)O1 (stereo not shown) [Example 128, Boc--(D)Phe--Pro--NH--CH[CH2 (4-guanidino-cyclohexyl)]BO2 --C10 H16] | < 0.5 µM |
| COC(=O)C(Cc1cccc(C#N)c1)NC(=O)C1CCCN1C(=O)C(Cc1ccccc1)NC(=O)OC(C)(C)C [Example 129, Boc--(D)Phe--Pro--(R)Phe(mCN)--OMe] | < 0.5 µM |
| COC(=O)C(Cc1cccc(C#N)c1)NC(=O)C1CCCN1C(=O)C(Cc1ccccc1)NC(=O)OC(C)(C)C [Example 130, Boc--(D)Phe--Pro--(S)Phe(mCN)--OMe] | < 0.5 µM |
| COC(=O)c1cccc(CC(NC(=O)C2CCCN2C(=O)C(N)Cc2ccccc2)B2OC3CC4CC(C4(C)C)C3(C)O2)c1 (stereo not shown) [Example 135, H--(D)Phe--Pro--boroPhe(mCOOMe)--C10 H16.HCl] | < 0.5 µM |
| COCCCC(NC(=O)C1CCCN1C(=O)C(Cc1ccccc1)NC(=O)OC(C)(C)C)B1OC2CC3CC(C3(C)C)C2(C)O1 (stereo not shown) [Example 138, Boc--(D)--Phe--Pro--boroGly[(CH2)3 --OCH3]--C10 H16] | < 0.5 µM |
| COCCCC(NC(=O)C1CCCN1C(=O)C(N)Cc1ccccc1)B1OC2CC3CC(C3(C)C)C2(C)O1 (stereo not shown) [Example 139, H--(D)--Phe--Pro--boroGly[(CH2)3 --OCH3]--C10 H16] | < 0.5 µM |
| COCCCC(NC(=O)[C@@H]1CCCN1C(=O)[C@@H](Cc1ccccc1)NC(C)C)B1OC2CC3CC(C3(C)C)C2(C)O1 (stereo partly shown) [Example 143, (CH3)2 CH--(D)--Phe--Pro--boroGly[(CH2)3 --OCH3]--C10 H16] | < 0.5 µM |
| COCCCC(NC(=O)C1CCCN1C(=O)C(Cc1ccccc1)NC(=O)CNC(C)=O)B1OC2CC3CC(C3(C)C)C2(C)O1 (stereo not shown) [Example 144, Ac--Gly--(D)--Phe--Pro--boroGly[(CH2)3 --OCH3]--C10 H16] | < 0.5 µM |
| COCCCC(NC(=O)[C@@H]1CCCN1C(=O)[C@@H](Cc1ccccc1)NC(=O)[C@@H]1CCCN1)B1OC2CC3CC(C3(C)C)C2(C)O1 (stereo partly shown) [Example 145, H--Pro--(D)--Phe--Pro--boroGly[(CH2)3 --OCH3]--C10 H16] | < 0.5 µM |
| Ac--(D)--Phe--Pro--boroGly[(CH2)3 --OCH3 ]--C10 H16 [Example 137] | < 50 µM |
| Ac--(D)Phe--Pro--boroIrg(CH3)--OH.HBr [Example 52] | < 0.5 µM |
| Ac--Pro--boroPhe(m-CN)--C10 H16 [Example 35] | < 50 µM |
| Boc--(D)Phe--Aze--boroOrn(CH=NH)--OH.HCl [Example 74] | < 0.5 µM |
| Boc--(D)Phe--Pro--NH--CH[4-amino-cyclohexyl]BO2 --C10 H16 [Example 126] | < 0.5 µM |
| Boc--(D)Phe--Pro--boroOrn(COCH3)--C10 H16 [Example 123] | < 0.5 µM |
| Cbz--(D)Phe--Pro--boroIrg(CH3)--C10 H16.HBr [Example 51] | < 0.5 µM |
| H--(D)Phe--Pro--boroOrn(CH=NH)]--C10 H16.0.5 HCl.0.5 BSA [Example 8] | < 0.5 µM |
| H--(D)Phe--Pro--boroPhe(m-CN)--C10 H16.HCl [Example 18] | < 0.5 µM |
| H--(D)Thiazolylalanine-Pro--boroPhe(m-CN)--C10 H16.HCl [Example 29] | < 0.5 µM |
